Results taken from US20260137642A1 (CANCER PREVENTION PHARMACEUTICALS, INC., priority 2021, published 2026).

Legend:
T cells = details: mice; cited from earlier work
[1] = Phase I/II trial in new onset T1D: adverse events judged possibly or probably related to drug; assay type: in vivo, human; details: for Adverse events possibly or probably related to drug: Abdominal Pain / Adverse events possibly or probably related to drug: Congestion / Adverse events possibly or probably related to drug: Cough / Adverse events possibly or probably related to drug: Diarrhea / Adverse events possibly or probably related to drug: Dizziness / Adverse events possibly or probably related to drug: Gastrointestinal (Total) / Adverse events possibly or probably related to drug: Hematologic, Anemia / Adverse events possibly or probably related to drug: Hot flashes associated with viral illness / Adverse events possibly or probably related to drug: Nausea / Adverse events possibly or probably related to drug: Nausea with IV placement / Adverse events possibly or probably related to drug: Neurologic, Headache / Adverse events possibly or probably related to drug: Other Viral Illness / Adverse events possibly or probably related to drug: Other infectious/immune, Pump site infection / Adverse events possibly or probably related to drug: Other, Hypoglycemia / Adverse events possibly or probably related to drug: Other, Urticaria/anaphylaxis / Adverse events possibly or probably related to drug: URI / Adverse events possibly or probably related to drug: Vomiting / Adverse events possibly or probably related to drug: Hematologic, Grade 1 Neutropenia: daily oral; for Adverse events possibly or probably related to drug: Hematologic, Grade 1 Neutropenia: neutrophil count < lower limit of normal but above 1500/mm^3
Source text: The primary efficacy measure was changes in pro-insulin to C-peptide ratios as a marker of β cell ER stress. The secondary objectives of the study were to elucidate the relationship between primary dose and markers of endoplasmic reticulum (ER) stress, polyamine concentrations, glycemic, and immunologic outcomes in persons with new onset T1D, and to characterize the dietary polyamine intake and urinary polyamine excretion of persons with recent-onset T1D. Secondary efficacy measures included other biomarkers of β cell stress, stimulated C-peptide values, and changes in T-cell subsets. This study was double-blind, placebo-controlled, 2:1 random assigned, phase I/II clinic trial for individuals with type 1 diabetes. The blinded dose-ranging study enrolled persons with new onset T1D with documented continued residual C-peptide production. […] After a 3 month wash-out period, the durability of effect was assessed. […] Males and females 12-40 years of age with a clinical diagnosis of T1D within 2-8 months of the time of visit 2; 2. […] Positive for any one of the following diabetes-related autoantibodies (mIAA, GADA, IA-2A, or ZnT8A); 4. Treatment naïve of any immunomodulatory agent; 5. […] Presence of any psychiatric disorder that will affect ability to participate in study, including psychiatric impairment or current use of anti-psychotic medication; 3. […] Chronic illness known to affect glucose metabolism (e.g. Cushing syndrome, polycystic ovarian disorder, cystic fibrosis) or taking medications that affect glucose metabolism (e.g. steroids, metformin); 5. Inability to swallow pills; 6. Hematologic abnormalities at screening (anemia, leukopenia (particularly neutropenia), or thrombocytopenia); 7. […] Female participants of child-bearing age must not be pregnant and agree to use an effective form of birth control or be abstinent during the study period; 9. BMI >95% for age and sex. […] The enrollment cohorts were as follows: […] [table] […] Possible drug-related expected AEs included mild-moderate nausea/vomiting/abdominal pain and diarrhea, moderate headache, upper respiratory infections, a pump site infection, and mild anemia. […] Adverse events judges by masked study investigators as possibly or probably related to drug are showing in Table 3.

[2] = system: APC-dependent intestinal tumorigenesis; details: mice; cited from earlier work
urinary polyamines = experiment: Phase I/II trial in new onset T1D: urinary polyamines (first morning urine, HPLC); assay type: in vivo, human; details: 3 months
Description: (§1) This study was double-blind, placebo-controlled, 2:1 random assigned, phase I/II clinic trial for individuals with type 1 diabetes. The blinded dose-ranging study enrolled persons with new onset T1D with documented continued residual C-peptide production. […] After a 3 month wash-out period, the durability of effect was assessed. [table]

RINm5F insulinoma cells = details: cited from earlier work
C-peptide = experiment: Phase I/II trial in new onset T1D: C-peptide by 2-h MMTT; assay type: in vivo, human; details: for C-peptide area under the curve values compared to the placebo group: 6-month post-randomization visit
Description: as §1

## NCCCC(N)(C(=O)O)C(F)F (centres unmarked) [eflornithine, 2,5-diamino-2-(difluoromethyl) pentanoic acid]
T cells
  Effect on T cells: deplete T cells
[1]; 125 mg/m^2 (n = 6)
  Adverse events possibly or probably related to drug: Abdominal Pain: 1
  Adverse events possibly or probably related to drug: Congestion: 0
  Adverse events possibly or probably related to drug: Cough: 0
  Adverse events possibly or probably related to drug: Diarrhea: 0
  Adverse events possibly or probably related to drug: Dizziness: 0
  Adverse events possibly or probably related to drug: Gastrointestinal (Total): 1
  Adverse events possibly or probably related to drug: Hematologic, Anemia: 0
  Adverse events possibly or probably related to drug: Hot flashes associated with viral illness: 0
  Adverse events possibly or probably related to drug: Nausea: 0
  Adverse events possibly or probably related to drug: Nausea with IV placement: 0
  Adverse events possibly or probably related to drug: Neurologic, Headache: 1
  Adverse events possibly or probably related to drug: Other Viral Illness: 0
  Adverse events possibly or probably related to drug: Other infectious/immune, Pump site infection: 0
  Adverse events possibly or probably related to drug: Other, Hypoglycemia: 0
  Adverse events possibly or probably related to drug: Other, Urticaria/anaphylaxis: 0
  Adverse events possibly or probably related to drug: URI: 0
  Adverse events possibly or probably related to drug: Vomiting: 1
  Adverse events possibly or probably related to drug: Hematologic, Grade 1 Neutropenia: 1
[1]; 250 mg/m^2 (n = 6)
  Adverse events possibly or probably related to drug: Abdominal Pain: 0
  Adverse events possibly or probably related to drug: Congestion: 0
  Adverse events possibly or probably related to drug: Cough: 0
  Adverse events possibly or probably related to drug: Diarrhea: 1
  Adverse events possibly or probably related to drug: Dizziness: 0
  Adverse events possibly or probably related to drug: Gastrointestinal (Total): 1
  Adverse events possibly or probably related to drug: Hematologic, Anemia: 0
  Adverse events possibly or probably related to drug: Hot flashes associated with viral illness: 0
  Adverse events possibly or probably related to drug: Nausea: 0
  Adverse events possibly or probably related to drug: Nausea with IV placement: 0
  Adverse events possibly or probably related to drug: Neurologic, Headache: 0
  Adverse events possibly or probably related to drug: Other Viral Illness: 0
  Adverse events possibly or probably related to drug: Other infectious/immune, Pump site infection: 0
  Adverse events possibly or probably related to drug: Other, Hypoglycemia: 0
  Adverse events possibly or probably related to drug: Other, Urticaria/anaphylaxis: 0
  Adverse events possibly or probably related to drug: URI: 0
  Adverse events possibly or probably related to drug: Vomiting: 0
  Adverse events possibly or probably related to drug: Hematologic, Grade 1 Neutropenia: 0
[1]; 500 mg/m^2 (n = 6)
  Adverse events possibly or probably related to drug: Abdominal Pain: 0
  Adverse events possibly or probably related to drug: Congestion: 0
  Adverse events possibly or probably related to drug: Cough: 0
  Adverse events possibly or probably related to drug: Diarrhea: 0
  Adverse events possibly or probably related to drug: Dizziness: 0
  Adverse events possibly or probably related to drug: Gastrointestinal (Total): 0
  Adverse events possibly or probably related to drug: Hematologic, Anemia: 0
  Adverse events possibly or probably related to drug: Hot flashes associated with viral illness: 0
  Adverse events possibly or probably related to drug: Nausea: 0
  Adverse events possibly or probably related to drug: Nausea with IV placement: 0
  Adverse events possibly or probably related to drug: Neurologic, Headache: 0
  Adverse events possibly or probably related to drug: Other Viral Illness: 0
  Adverse events possibly or probably related to drug: Other infectious/immune, Pump site infection: 0
  Adverse events possibly or probably related to drug: Other, Hypoglycemia: 1
  Adverse events possibly or probably related to drug: Other, Urticaria/anaphylaxis: 0
  Adverse events possibly or probably related to drug: URI: 0
  Adverse events possibly or probably related to drug: Vomiting: 0
  Adverse events possibly or probably related to drug: Hematologic, Grade 1 Neutropenia: 0
[1]; 750 mg/m^2 (n = 7)
  Adverse events possibly or probably related to drug: Abdominal Pain: 2
  Adverse events possibly or probably related to drug: Congestion: 2
  Adverse events possibly or probably related to drug: Cough: 0
  Adverse events possibly or probably related to drug: Diarrhea: 0
  Adverse events possibly or probably related to drug: Dizziness: 2
  Adverse events possibly or probably related to drug: Gastrointestinal (Total): 5
  Adverse events possibly or probably related to drug: Hematologic, Anemia: 1
  Adverse events possibly or probably related to drug: Hot flashes associated with viral illness: 0
  Adverse events possibly or probably related to drug: Nausea: 3
  Adverse events possibly or probably related to drug: Nausea with IV placement: 1
  Adverse events possibly or probably related to drug: Neurologic, Headache: 0
  Adverse events possibly or probably related to drug: Other Viral Illness: 1
  Adverse events possibly or probably related to drug: Other infectious/immune, Pump site infection: 0
  Adverse events possibly or probably related to drug: Other, Hypoglycemia: 0
  Adverse events possibly or probably related to drug: Other, Urticaria/anaphylaxis: 1
  Adverse events possibly or probably related to drug: URI: 2
  Adverse events possibly or probably related to drug: Vomiting: 0
  Adverse events possibly or probably related to drug: Hematologic, Grade 1 Neutropenia: 0
[1]; 1000 mg/m^2 (n = 6)
  Adverse events possibly or probably related to drug: Abdominal Pain: 1
  Adverse events possibly or probably related to drug: Congestion: 1
  Adverse events possibly or probably related to drug: Cough: 1
  Adverse events possibly or probably related to drug: Diarrhea: 0
  Adverse events possibly or probably related to drug: Dizziness: 0
  Adverse events possibly or probably related to drug: Gastrointestinal (Total): 2
  Adverse events possibly or probably related to drug: Hematologic, Anemia: 2
  Adverse events possibly or probably related to drug: Hot flashes associated with viral illness: 1
  Adverse events possibly or probably related to drug: Nausea: 1
  Adverse events possibly or probably related to drug: Nausea with IV placement: 0
  Adverse events possibly or probably related to drug: Neurologic, Headache: 2
  Adverse events possibly or probably related to drug: Other Viral Illness: 0
  Adverse events possibly or probably related to drug: Other infectious/immune, Pump site infection: 1
  Adverse events possibly or probably related to drug: Other, Hypoglycemia: 0
  Adverse events possibly or probably related to drug: Other, Urticaria/anaphylaxis: 0
  Adverse events possibly or probably related to drug: URI: 2
  Adverse events possibly or probably related to drug: Vomiting: 0
  Adverse events possibly or probably related to drug: Hematologic, Grade 1 Neutropenia: 0
[1]; 3-month course of oral eflornithine, children and adults with recent-onset T1D
  Tolerability: well tolerated with a favorable AE profile
[1]; daily oral doses of 125, 250, 500, 750, and 1000 mg/m^2, drug or placebo
  Severity of adverse events noted: Mild and moderate AEs
[1]; individuals on active drug, daily oral doses of 125, 250, 500, 750, and 1000 mg/m^2
  Unexpected drug-related effects: No unexpected effects judged related to drug
[2]
  APC-dependent intestinal tumorigenesis: decrease APC-dependent intestinal tumorigenesis
Urinary polyamines; 125-1000 mg/m^2
  Change in urinary polyamines with increasing drug dose across groups: Decreases in urinary polyamines
Urinary polyamines; Drug Dose 125
  3-month urinary Decarboxylated AdoMet, Least Square Means: 133.0 µmol/g
  3-month urinary Putrescine, Least Square Means: 127.9 µmol/g
Urinary polyamines; Drug Dose 250
  3-month urinary Decarboxylated AdoMet, Least Square Means: 87.7 µmol/g
  3-month urinary Putrescine, Least Square Means: 78.0 µmol/g
Urinary polyamines; Drug Dose 500
  3-month urinary Decarboxylated AdoMet, Least Square Means: 114.3 µmol/g
  3-month urinary Putrescine, Least Square Means: 41.8 µmol/g
Urinary polyamines; Drug Dose 750
  3-month urinary Decarboxylated AdoMet, Least Square Means: 116.0 µmol/g
  3-month urinary Putrescine, Least Square Means: 56.6 µmol/g
Urinary polyamines; Drug Dose 1000
  3-month urinary Decarboxylated AdoMet, Least Square Means: 165.7 µmol/g
  3-month urinary Putrescine, Least Square Means: 35.7 µmol/g
RINm5F insulinoma cells
  Insulin content and secretion: improves insulin content and secretion
C-peptide; 750 mg/m^2 dose
  C-peptide area under the curve values compared to the placebo group: significantly higher
C-peptide; 1000 mg/m^2 dose
  C-peptide area under the curve values compared to the placebo group: significantly higher
C-peptide; at higher doses, 3-month oral course
  β cell function compared to placebo: greater β cell function compared to placebo
